Source: patent US20250326794A1, “ANTI-CANCER LEUCINE-RICH PEPTIDES AND USES THEREOF” (KING'S COLLEGE LONDON, priority 2019, published 2025)

Tests used:
[1] = test system: HEK293T (human embryonic kidney cell); assay: cells; conditions: 72 h
[2] = test system: HMLER (human breast cancer bulk cell); assay: cells; conditions: 72 h
Summary of the method: (§1)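 MTT viability after 72 h exposure to 0–100 μM compound (final DMSO 0.5% or 0%), 5×10^3 cells/well; HMLER lines and MCF-10A in MEGM, U2OS in DMEM with 10% FBS. A550 normalized to matching vehicle controls; IC50 interpolated from dose–response curves.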

[3] = test system: HMLER-shEcad (human breast cancer stem cell); assay: cells; conditions: 72 h
Summary of the method: as §1

[4] = test system: U2OS (human bone osteosarcoma); conditions: 72 h
Summary of the method: as §1

[5] = Tryptophan fluorescent binding assay, 3POPC/1POPG vesicles; conditions: 50 μM peptide, PBS pH 7.4, lipid per peptide
Summary of the method: (§2)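 Peptide fixed at 50 μM, titrated with POPC or 3POPC/1POPG large unilamellar vesicles (100 nm extruded; 0-5000 μM lipid) in PBS pH 7.4. Tryptophan fluorescence (ex 280, em 300-450 nm) read after 60 min; lipid concentration giving 50% binding reported as lipid/peptide ratio.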

[6] = ANTS/DPX liposome leakage assay, POPC vesicles; type: biochemical; conditions: 0.5 mM vesicles; for Peptide Concentration-induced 50% ANTS/DPX leakage at pH 4.8, POPC Vesicle: pH 4.8, lipid per peptide; for Peptide Concentration-induced 50% ANTS/DPX leakage at pH 7.4, POPC Vesicle: pH 7.4, lipid per peptide
Summary of the method: (§3)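 LUVs (100 nm extruded) of POPC or POPC:POPG 3:1, loaded with 5 mM ANTS/12.5 mM DPX, used at 0.5 mM lipid with peptide 0–20 μM in PBS pH 7.4 or HCl-adjusted PBS pH 4.8. Leakage read after 3 h (ex 350/em 510 nm) against 10% Triton maximum; 50% leakage expressed as lipid per peptide.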

[7] = ANTS/DPX liposome leakage assay, 3POPC/1POPG vesicles; type: biochemical; conditions: 0.5 mM vesicles; for Peptide Concentration-induced 50% ANTS/DPX leakage at pH 4.8, 3POPC/1POPG Vesicle: pH 4.8, lipid per peptide; for Peptide Concentration-induced 50% ANTS/DPX leakage at pH 7.4, 3POPC/1POPG Vesicle: pH 7.4, lipid per peptide
Summary of the method: as §3

[8] = Tryptophan fluorescent binding assay, POPC vesicles; conditions: 50 μM peptide, PBS pH 7.4, lipid per peptide
Summary of the method: as §2

| Structure (SMILES) | IC50 [1] | IC50 [2] | IC50 [3] | IC50 [4] | Lipid Concentration-induced 50% Peptide Binding, 3POPC/1POPG Vesicle [5] | Peptide Concentration-induced 50% ANTS/DPX leakage at pH 4.8, POPC Vesicle [6] | Peptide Concentration-induced 50% ANTS/DPX leakage at pH 7.4, POPC Vesicle [6] | Peptide Concentration-induced 50% ANTS/DPX leakage at pH 4.8, 3POPC/1POPG Vesicle [7] | Peptide Concentration-induced 50% ANTS/DPX leakage at pH 7.4, 3POPC/1POPG Vesicle [7] | Lipid Concentration-induced 50% Peptide Binding, POPC Vesicle [8] |
| --- | --- | --- | --- | --- | --- | --- | --- | --- | --- | --- |
| CC(C)C[C@H](NC(=O)CN)C(=O)N[C@@H](CC(C)C)C(=O)N[C@@H](CCCCN)C(=O)N[C@@H](CC(C)C)C(=O)N[C@@H](CC(C)C)C(=O)N[C@@H](CCCCN)C(=O)N[C@@H](CC(C)C)C(=O)N[C@@H](CC(C)C)C(=O)N[C@@H](CC(C)C)C(=O)N[C@@H](CCCCN)C(=O)N[C@@H](C)C(=O)N[C@@H](C)C(=O)NCC(=O)N[C@@H](Cc1c[nH]c2ccccc12)C(N)=O [KKK] | 3.7 ± 0.14 µM | 1.57 ± 0.24 µM | 1.35 ± 0.4 µM | 9.65 ± 1.2 µM | 1.70 L/P | 156 L/P | 1369 L/P | 81 L/P | 115 L/P | 1.25 L/P |
| CC(C)C[C@H](NC(=O)CN)C(=O)N[C@@H](CC(C)C)C(=O)N[C@@H](Cc1c[nH]cn1)C(=O)N[C@@H](CC(C)C)C(=O)N[C@@H](CC(C)C)C(=O)N[C@@H](CCC(=O)O)C(=O)N[C@@H](CC(C)C)C(=O)N[C@@H](CC(C)C)C(=O)N[C@@H](CC(C)C)C(=O)N[C@@H](Cc1c[nH]cn1)C(=O)N[C@@H](C)C(=O)N[C@@H](C)C(=O)NCC(=O)N[C@@H](Cc1c[nH]c2ccccc12)C(N)=O [HEH] | 8.8 ± 1.7 µM | 28.6 ± 10.8 µM | 11 ± 1.06 µM | 106 ± 14 µM | 3.50 L/P | 173 L/P | 995 L/P | 24 L/P | 505 L/P | 0.88 L/P |
| CC(C)C[C@H](NC(=O)CN)C(=O)N[C@@H](CC(C)C)C(=O)N[C@@H](CCCCN)C(=O)N[C@@H](CC(C)C)C(=O)N[C@@H](CC(C)C)C(=O)N[C@@H](CCC(=O)O)C(=O)N[C@@H](CC(C)C)C(=O)N[C@@H](CC(C)C)C(=O)N[C@@H](CC(C)C)C(=O)N[C@@H](Cc1c[nH]cn1)C(=O)N[C@@H](C)C(=O)N[C@@H](C)C(=O)NCC(=O)N[C@@H](Cc1c[nH]c2ccccc12)C(N)=O [KEH] | 5.65 ± 0.07 µM | 3.3 ± 0.42 µM | 2.35 ± 0.07 µM | 49.2 ± 5.3 µM | 0.50 L/P | 188 L/P | 995 L/P | 68 L/P | 286 L/P | 1.00 L/P |
| CC(C)C[C@H](NC(=O)CN)C(=O)N[C@@H](CC(C)C)C(=O)N[C@@H](Cc1c[nH]cn1)C(=O)N[C@@H](CC(C)C)C(=O)N[C@@H](CC(C)C)C(=O)N[C@@H](CCCCN)C(=O)N[C@@H](CC(C)C)C(=O)N[C@@H](CC(C)C)C(=O)N[C@@H](CC(C)C)C(=O)N[C@@H](CCC(=O)O)C(=O)N[C@@H](C)C(=O)N[C@@H](C)C(=O)NCC(=O)N[C@@H](Cc1c[nH]c2ccccc12)C(N)=O [HKE] | 5.15 ± 0.64 µM | 2.7 ± 0.28 µM | 1.9 ± 0.42 µM | 16 ± 0.78 µM | 0.25 L/P | 173 L/P | 692 L/P | 94 L/P | 365 L/P | 0.75 L/P |
| CC(C)C[C@H](NC(=O)CN)C(=O)N[C@@H](CC(C)C)C(=O)N[C@@H](Cc1c[nH]cn1)C(=O)N[C@@H](CC(C)C)C(=O)N[C@@H](CC(C)C)C(=O)N[C@@H](CCCCN)C(=O)N[C@@H](CC(C)C)C(=O)N[C@@H](CC(C)C)C(=O)N[C@@H](CC(C)C)C(=O)N[C@@H](CCCCN)C(=O)N[C@@H](C)C(=O)N[C@@H](C)C(=O)NCC(=O)N[C@@H](Cc1c[nH]c2ccccc12)C(N)=O [HKK] | 9.5 ± 0.99 µM | 3.4 ± 0.71 µM | 2.6 ± 0.42 µM | 12.23 ± 0.11 µM | 0.14 L/P | 106 L/P | 657 L/P | 106 L/P | 90 L/P | 0.18 L/P |
| CC(C)C[C@H](NC(=O)CN)C(=O)N[C@@H](CC(C)C)C(=O)N[C@@H](CCCCN)C(=O)N[C@@H](CC(C)C)C(=O)N[C@@H](CC(C)C)C(=O)N[C@@H](Cc1c[nH]cn1)C(=O)N[C@@H](CC(C)C)C(=O)N[C@@H](CC(C)C)C(=O)N[C@@H](CC(C)C)C(=O)N[C@@H](CCCCN)C(=O)N[C@@H](C)C(=O)N[C@@H](C)C(=O)NCC(=O)N[C@@H](Cc1c[nH]c2ccccc12)C(N)=O [KHK] | 3.55 ± 0.78 µM | 2.59 ± 0.92 µM | 1.4 ± 0.14 µM | 12.9 ± 1.24 µM | 0.38 L/P | 140 L/P | 1153 L/P | 53 L/P | 193 L/P | 0.17 L/P |
| CC(C)C[C@H](NC(=O)CN)C(=O)N[C@@H](CC(C)C)C(=O)N[C@@H](Cc1c[nH]cn1)C(=O)N[C@@H](CC(C)C)C(=O)N[C@@H](CC(C)C)C(=O)N[C@@H](CCC(=O)O)C(=O)N[C@@H](CC(C)C)C(=O)N[C@@H](CC(C)C)C(=O)N[C@@H](CC(C)C)C(=O)N[C@@H](CCC(=O)O)C(=O)N[C@@H](C)C(=O)N[C@@H](C)C(=O)NCC(=O)N[C@@H](Cc1c[nH]c2ccccc12)C(N)=O [HEE] | 10.2 ± 0.2 µM | 6.5 ± 0.71 µM | 4.95 ± 0.49 µM | 47.5 ± 11 µM | 0.50 L/P | 100 L/P | 876 L/P | 122 L/P | 792 L/P | 0.58 L/P |
| CC(C)C[C@H](NC(=O)CN)C(=O)N[C@@H](CC(C)C)C(=O)N[C@@H](CCCCN)C(=O)N[C@@H](CC(C)C)C(=O)N[C@@H](CC(C)C)C(=O)N[C@@H](CCCCN)C(=O)N[C@@H](CC(C)C)C(=O)N[C@@H](CC(C)C)C(=O)N[C@@H](CC(C)C)C(=O)N[C@@H](Cc1c[nH]cn1)C(=O)N[C@@H](C)C(=O)N[C@@H](C)C(=O)NCC(=O)N[C@@H](Cc1c[nH]c2ccccc12)C(N)=O [KKH] | 4 ± 0.28 µM | 2.4 ± 0.85 µM | 2.2 ± 0.42 µM | 13.3 ± 0.99 µM | 0.48 L/P | 164 L/P | 2119 L/P | 49 L/P | 227 L/P | 0.83 L/P |
| CC(C)C[C@H](NC(=O)CN)C(=O)N[C@@H](CC(C)C)C(=O)N[C@@H](CC(=O)O)C(=O)N[C@@H](CC(C)C)C(=O)N[C@@H](CC(C)C)C(=O)N[C@@H](CCCCN)C(=O)N[C@@H](CC(C)C)C(=O)N[C@@H](CC(C)C)C(=O)N[C@@H](CC(C)C)C(=O)N[C@@H](Cc1c[nH]cn1)C(=O)N[C@@H](C)C(=O)N[C@@H](C)C(=O)NCC(=O)N[C@@H](Cc1c[nH]c2ccccc12)C(N)=O [DKH] | 6.15 ± 1.34 µM | 3.45 ± 0.07 µM | 2.8 ± 0.28 µM | 21.1 ± 3.01 µM | 0.46 L/P | 41 L/P | 614 L/P | 58 L/P | 274 L/P | 10.00 L/P |
| CC(C)C[C@H](NC(=O)CN)C(=O)N[C@@H](CC(C)C)C(=O)N[C@@H](CC(=O)O)C(=O)N[C@@H](CC(C)C)C(=O)N[C@@H](CC(C)C)C(=O)N[C@@H](Cc1c[nH]cn1)C(=O)N[C@@H](CC(C)C)C(=O)N[C@@H](CC(C)C)C(=O)N[C@@H](CC(C)C)C(=O)N[C@@H](CCC(=O)O)C(=O)N[C@@H](C)C(=O)N[C@@H](C)C(=O)NCC(=O)N[C@@H](Cc1c[nH]c2ccccc12)C(N)=O [DHE] | 11.1 ± 1.91 µM | 3.75 ± 0.92 µM | 2.8 ± 0.14 µM | 17.2 ± 1.06 µM | 0.72 L/P | 58 L/P | 566 L/P | 469 L/P | 581 L/P | 1.00 L/P |
